# What was measured:
# HUVEC cells [1] = assay: Effect of inhibitors/antagonists on the AdSucc-induced Ca2+ response; format: cell-based, human; conditions: for effect on Ca2+ response upon AdSucc treatment: PLC inhibitor / IP3 antagonist
# Procedure: (§1) In another example, AdSucc signaling properties were studied. To validate if AdSucc may have a signaling role, the effect of AdSucc on second messenger signaling molecules was studied. […] Our initial data was collected on a plate reader that averages multicellular responses upon AdSucc stimulation. […] To get insights into a mechanism for Ca^2+ release, cells were treated with phospholipase C (PLC) inhibitors U73122 and inositol phosphate triphosphate (IP3) antagonist 2-APB. […] In FIG. 3B, forskolin was used as a positive control (n=5). In FIG. 3C AdSucc is shown to increase cytosolic Ca^2+ in the primary rat brain microvascular endothelia 9b) and HUVEC (c) cells as determined using a plate reader, ATP was used as a positive control.
# HUVEC cells [2] = assay: In vitro sprouting assay on collagen matrix; format: cell-based, human; conditions: 24 h, normoxia; for invasion and sprouting of HUVEC cells: 0.5 mM in collagen matrix, n=4
# Procedure: In another example AdSucc's role in angiogenesis was studied. Two different models were used to collect preliminary data in support of AdSucc angiogenic properties. First, an in vitro sprouting assay—a critical step in angiogenesis—was used. HUVEC cells were plated on collagen matrix containing AdSucc, SuccAd, VEGF, or vesicle control for 24 h. For quantification of invaded and sprouted structures, z-stacked images were taking using transmitted light illumination in identical fields following glutaraldehyde fixation and toluidine blue staining. […] The concentrations used (0.5 mM) were in the range found in the brain under low energy conditions.
# nude mice [3] = assay: In vivo matrigel plaque angiogenesis assay (hemoglobin readout); conditions: AdSucc 0.5 mM in matrigel, s.c. in nude mice, 10 days, n=4
# From the text: (§2) The pro-angiogenic AdSucc effect in vivo using a matrigel plaque loaded with AdSucc (using hemoglobin readout) or DIVA assay kit also loaded with AdSucc (using endothelial cell quantification with FITC labeled lectin) was also studied (FIG. 4B). In both assays, matrigel was implanted into nude mice (s.c.) for 10 days. […] In addition, in the matrigel assay, the concentration of AdSucc degradation products, SuccAd, was 1000-fold lower than AdSucc, and adenosine was undetectable in the matrigel (FIG. 4C).
# [4] = system: primary rat microvascular endothelial cells; assay: Intracellular Ca2+ levels in primary rat brain microvascular endothelial cells (plate reader); format: cell-based; conditions: ATP positive control
# Procedure: as §1
# nude mice [5] = assay: In vivo DIVA assay kit (endothelial cell quantification with FITC labeled lectin); conditions: AdSucc 0.5 mM loaded, s.c. in nude mice, 10 days, n=4
# From the text: as §2
# HUVEC cells [6] = assay: Intracellular Ca2+ levels in HUVEC cells (plate reader, single cell imaging); format: cell-based, human
# Procedure: as §1
# HUVEC cells [7] = assay: cAMP levels in endothelial cells; format: cell-based, human; conditions: forskolin positive control
# Procedure: as §1
# [8] = system: mice with transient middle cerebral artery occlusion (MCAO); assay: Stroke model: 45 min transient middle cerebral artery occlusion (MCAO), intranasal treatment; format: in vivo; conditions: AdSucc intranasally 2 h after reperfusion and then every 24 h, 10 μL/animal, 20 mM in PBS; tested 1-7 days post MCAO
# Procedure: In an example, Stroke was induced in 3 month old mice with 45 min of transient middle cerebral artery occlusion (MCAO) using an intraluminal filament and performed in a double-blind manner. To correct for edema and necrotic tissue loss, corrected infarct volume was calculated as [(volume of the contralateral hemisphere) minus (volume of the viable tissue in ischemic hemisphere)] after triphenyl tetrazolium chloride (TTC) staining on day 7 post-reperfusion. Following MCAO, a modified neurological deficiency score was used to grade neurological function. A series of motor (muscle status, movement, and balance), sensory (visual, tactile, and proprioceptive) and reflex tests were graded (0—being normal and 18—maximal deficit score) by investigator who was blinded to the experimental groups. Mice were tested 1, 3, 5, and 7 days post MCAO surgery. Deaths were plotted and analyzed as survival probability. Mice were treated with AdSucc intranasally 2 h after reperfusion and then every 24 h (10 μL/animal over 10 min, 20 mM in PBS, pH=7.2). […] FIG. 1A is a graph showing neurological deficiency in the test subjects. In FIG. 1A, higher numbers indicate higher deficiency between saline and AdSucc treated animals at the same test day. […] FIG. 1C is a graph showing representative blood flow rate during MCAO surgery as recorded with a laser Doppler sensor.
# [9] = Brain AdSucc concentration after intranasal AdSucc treatment; format: in vivo, mice; conditions: 10 μL/animal over 10 min, 20 mM in PBS, pH=7.2
# [10] = Matrigel analysis for products of AdSucc degradation upon incubation in vivo; design: species or system mice; conditions: AdSucc loaded matrigel after in vivo incubation, n=3
# From the text: as §2
smiles,measurement,setting,value
NCCOB(c1ccccc1)c1ccccc1 [2-APB],effect on Ca2+ response upon AdSucc treatment,"HUVEC cells [1]; HUVEC cells, n=5",significantly attenuated
"O=C(O)C[C@H](Nc1ncnc2c1ncn2[C@@H]1O[C@H](COP(=O)(O)O)[C@@H](O)[C@H]1O)C(=O)O [AdSucc, (2S)-2-({9-[(2R,3R,4S,5R)-3,4-dihydroxy-5-[(phosphonooxy)methyl]oxolan-2-yl]-9H-purin-6-yl}amino)butanedioic acid]",invasion and sprouting of HUVEC cells,HUVEC cells [2],significantly potentiated
same,invasion and sprouting effect compared to VEGF,HUVEC cells [2]; 0.5 mM,higher effect compared to VEGF
same,angiogenesis in loaded matrigel (hemoglobin),nude mice [3],significantly increased
same,effect on intracellular Ca2+ levels,[4],very profound effect
same,angiogenesis in DIVA assay (FITC lectin labeled endothelial cells),nude mice [5],significantly increased
same,Ca2+ increase by single cell Ca2+ imaging,"HUVEC cells [6]; 2 micromolar Fura, 0 and 100 sec after AdSucc 0.3 mM in PBS",independently confirmed
same,effect on intracellular Ca2+ levels,"HUVEC cells [6]; plate reader, AdSucc at the concentration found in the ischemic brain, comparable to ATP treatment",very profound effect
same,effect on cAMP levels,HUVEC cells [7],no effect
same,"outcome after stroke injury (neurological deficiency score, survival, corrected infarct volume)",[8],significant improvement
same,brain AdSucc concentrations,[9],significantly increased
Cc1c(C(=O)Nc2cccc(C(F)(F)F)c2)cc(-c2ccccc2)n1CCCN1CCOCC1 [HC 067047],effect on AdSucc-induced Ca2+ signaling,HUVEC cells [1]; TROV4 antagonist at 0.5 μM,did not affect
Cc1cc(N2CCCCC2)nc2ccccc12 [ML 204],effect on AdSucc-induced Ca2+ signaling,HUVEC cells [1]; TRPC 4/5 antagonist at 25 μM,did not affect
Cc1nc(N=Nc2ccc(S(=O)(=O)O)cc2S(=O)(=O)O)c(COP(=O)(O)O)c(C=O)c1O [PPADS],effect on AdSucc-induced Ca2+ response,"HUVEC cells [1]; non-selective P2 purinergic antagonist, HUVEC cells, n=5",significantly attenuated
"O=C(O)C[C@H](Nc1ncnc2c1ncn2[C@@H]1O[C@H](CO)[C@@H](O)[C@H]1O)C(=O)O [SuccAd, N-(9-β-D-ribofuranosyl-9H-purin-6-yl)-L-aspartic acid]",invasion and sprouting of HUVEC cells,HUVEC cells [2],did not have an effect
same,"concentration of the AdSucc degradation product in the matrigel, relative to AdSucc",[10]; lower than AdSucc,1000 fold
COc1ccc2c(c1)CC[C@@H]1[C@@H]2CC[C@]2(C)[C@@H](NCCCCCCN3C(=O)C=CC3=O)CC[C@@H]12 [U73122],effect on Ca2+ response upon AdSucc treatment,"HUVEC cells [1]; HUVEC cells, n=5",significantly attenuated
Nc1ncnc2c1ncn2[C@@H]1O[C@H](CO)[C@@H](O)[C@H]1O [adenosine],degradation product level in the matrigel,[10],undetectable
